This passage reports IC50 results from patent publication US20220235065A1 (Epizyme, Inc., priority 2016, published 2022).

One assay addresses T1, EHMT1 (Homo sapiens, UniProt Q9H9B1).
T1 sequence (Q9H9B1 1-1298): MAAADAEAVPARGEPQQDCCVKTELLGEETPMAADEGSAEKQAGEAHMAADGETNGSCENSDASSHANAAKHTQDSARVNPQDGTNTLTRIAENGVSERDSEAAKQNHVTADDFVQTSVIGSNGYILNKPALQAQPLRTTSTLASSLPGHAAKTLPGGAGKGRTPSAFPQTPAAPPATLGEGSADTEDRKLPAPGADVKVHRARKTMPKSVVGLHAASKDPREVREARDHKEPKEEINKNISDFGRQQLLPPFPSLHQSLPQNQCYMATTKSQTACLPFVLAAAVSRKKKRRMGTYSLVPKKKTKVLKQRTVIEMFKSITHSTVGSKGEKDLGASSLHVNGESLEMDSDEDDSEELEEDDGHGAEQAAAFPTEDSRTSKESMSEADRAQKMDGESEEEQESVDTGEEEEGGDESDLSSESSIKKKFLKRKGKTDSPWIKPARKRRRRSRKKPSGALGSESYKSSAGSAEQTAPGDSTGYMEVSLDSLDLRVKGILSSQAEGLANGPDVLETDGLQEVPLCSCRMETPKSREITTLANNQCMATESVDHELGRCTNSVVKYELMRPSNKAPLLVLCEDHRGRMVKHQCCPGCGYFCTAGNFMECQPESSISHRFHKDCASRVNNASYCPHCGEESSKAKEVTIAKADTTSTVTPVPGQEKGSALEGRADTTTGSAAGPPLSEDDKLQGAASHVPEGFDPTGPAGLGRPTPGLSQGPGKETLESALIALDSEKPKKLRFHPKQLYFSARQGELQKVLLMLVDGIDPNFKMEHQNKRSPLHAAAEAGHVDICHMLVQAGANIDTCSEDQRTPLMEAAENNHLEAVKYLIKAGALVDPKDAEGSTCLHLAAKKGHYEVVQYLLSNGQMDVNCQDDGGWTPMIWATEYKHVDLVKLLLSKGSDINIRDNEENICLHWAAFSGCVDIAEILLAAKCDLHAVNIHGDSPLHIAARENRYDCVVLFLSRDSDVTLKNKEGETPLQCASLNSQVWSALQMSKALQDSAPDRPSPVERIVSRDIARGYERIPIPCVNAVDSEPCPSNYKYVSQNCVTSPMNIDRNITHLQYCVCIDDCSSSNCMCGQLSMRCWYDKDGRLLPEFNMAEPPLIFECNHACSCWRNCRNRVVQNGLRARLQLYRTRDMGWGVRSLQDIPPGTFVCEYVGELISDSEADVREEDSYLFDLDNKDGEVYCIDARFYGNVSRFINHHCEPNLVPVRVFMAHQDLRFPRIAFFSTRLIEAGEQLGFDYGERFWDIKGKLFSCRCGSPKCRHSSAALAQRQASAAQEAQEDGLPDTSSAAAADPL
In words: EHMT1 PEP (EHMT1 peptide enzyme assay). Type of assay: biochemical. The following applies: peptide substrate enzyme assay.

Assay [1] has as its target T2, recombinant purified human EHMT2 913-1193 (Homo sapiens, UniProt Q96KQ7).
T2 construct: Recombinant purified human EHMT2 913-1193 (55 μM) synthesized by Viva was used for all experiments; purchased Viva
T2 sequence (Q96KQ7 913-1193): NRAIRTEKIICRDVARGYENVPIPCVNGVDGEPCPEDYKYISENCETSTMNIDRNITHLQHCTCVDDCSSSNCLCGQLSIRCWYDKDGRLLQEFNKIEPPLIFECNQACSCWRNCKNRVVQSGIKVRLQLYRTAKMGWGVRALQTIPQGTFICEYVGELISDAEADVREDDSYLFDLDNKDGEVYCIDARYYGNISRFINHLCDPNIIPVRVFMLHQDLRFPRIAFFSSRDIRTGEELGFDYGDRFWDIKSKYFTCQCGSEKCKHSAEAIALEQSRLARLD
In words: EHMT2 enzyme assay on histone peptide substrate (3H-SAM Flashplate). Type of assay: biochemical. The following applies: read-out: EHMT2 PEP (IC50 μM). The procedure:
Recombinant purified human EHMT2 913-1193 (55 μM) synthesized by Viva was used for all experiments. Biotinylated histone peptides were synthesized by Biopeptide and HPLC-purified to >95% purity. Streptavidin Flashplates and seals were purchased from PerkinElmer and 384 Well V-bottom Polypropylene Plates were from Greiner. ^3H-labeled S-adenosylmethionine (3H-SAM) was obtained from American Radiolabeled Chemicals with a specific activity of 80 Ci/mmol. Unlabeled SAM and S-adenosylhomocysteine (SAH) were obtained from American Radiolabeled Chemicals and Sigma-Aldrich respectively. Flashplates were washed in a Biotek ELx-405 with 0.1% Tween. 384-well Flashplates and 96-well filter binding plates were read on a TopCount microplate reader (PerkinElmer). Compound serial dilutions were performed on a Freedom EVO (Tecan) and spotted into assay plates using a Thermo Scientific Matrix PlateMate (Thermo Scientific). Reagent cocktails were added by Multidrop Combi (Thermo Scientific).
General Procedure for EHMT2 Enzyme Assay on Histone Peptide Substrate.
10-point curves of test compounds were made on a Freedom EVO (Tecan) using serial 3-fold dilutions in DMSO, beginning at 2.5 mM (final top concentration of compound was 50 μM and the DMSO was 2%). A 1 μL aliquot of the inhibitor dilution series was spotted in a polypropylene 384-well V-bottom plate (Greiner) using a Thermo Scientific Matrix PlateMate (Thermo Scientific). The 100% inhibition control consisted of 1 mM final concentration of the product inhibitor S-adenosylhomocysteine (SAH, Sigma-Aldrich). Compounds were incubated for 30 minutes with 40 μL per well of 0.031 nM EHMT2 (recombinant purified human EHMT2 913-1193, Viva) in 1× assay buffer (20 mM Bicine [pH 7.5], 0.002% Tween 20, 0.005% Bovine Skin Gelatin and 1 mM TCEP). 10 μL per well of substrate mix comprising assay buffer, ^3H-SAM (3H-labeled S-adenosylmethionine, American Radiolabeled Chemicals, specific activity of 80 Ci/mmol), unlabeled SAM (American Radiolabeled Chemicals), and peptide representing histone H3 residues 1-15 containing C-terminal biotin (appended to a C-terminal amide-capped lysine, synthesized by Biopeptide and HPLC-purified to greater than 95% purity) were added to initiate the reaction (both substrates were present in the final reaction mixture at their respective Km values, an assay format referred to as “balanced conditions”). Reactions were incubated for 60 minutes at room temperature and quenched with 10 μL per well of 400 μM unlabeled SAM, then transferred to a 384-well streptavidin Flashplate (PerkinElmer) and washed in a Biotek ELx-405 well washer with 0.1% Tween after 60 minutes. 384-well Flashplates were read on a TopCount microplate reader (PerkinElmer).
IC50 curves were generated using triplicate wells per concentration of compound. The IC50 is the concentration of compound at which measured methylation is inhibited by 50% as interpolated from the dose response curves. IC50 values were calculated using a non-linear regression (variable slope-four parameter fit model) with by the following formula
where Top is fixed at 100% and Bottom is fixed to 0%, [I]=concentration of inhibitor, IC50=half maximal inhibitory concentration and n=Hill Slope.

`CNc1cc(C)nc(Nc2ccc(Cl)c(C(=O)Nc3ncco3)c2)n1` [Compound 249] yielded an IC50 against EHMT1 of 0.1 to 1 µM.
For the compound `CNc1cc(C)nc(Nc2ccc(C)c(C(=O)Nc3cc(C#N)ccn3)c2)n1` [Compound 303], the IC50 in assay [1] lay in the range of 1 to 10 µM.
As to `CNCc1cnn(-c2cc(Nc3nc(C)cc(NC)n3)ccc2C#N)c1` [Compound 332], the IC50 (in assay [1]; on EHMT1) was < 0.1 µM each time.
Regarding `CNc1cc(C)nc(Nc2ccc(OC)c(-n3cc([C@@H]4CCCN4)cn3)c2)n1` [Compound 333], the IC50 (in assay [1]; at EHMT1) was < 0.1 µM each time.
Turning to `CNc1cc(C)nc(Nc2ccc(OC)c(-n3cc([C@H]4CCCN4)cn3)c2)n1` [Compound 334], the IC50 (in assay [1]; on EHMT1) was < 0.1 µM in each case.

For orientation: IC50 means the concentration that gives 50% inhibition.
